Test results as given in paper PMC6366411, “Novel 2-indolinones containing a sulfonamide moiety as selective inhibitors of candida β-carbonic anhydrase enzyme” (Journal of Enzyme Inhibition and Medicinal Chemistry, 2019).

These compounds were tested against T1, CgNce103 (Nakaseomyces glabratus, UniProt Q6FTL6) (assay: stopped-flow CO2 hydration assay).
T1 construct: gene NCE103; enzyme preparation, host and tags not described
T1 sequence (Q6FTL6 1-219): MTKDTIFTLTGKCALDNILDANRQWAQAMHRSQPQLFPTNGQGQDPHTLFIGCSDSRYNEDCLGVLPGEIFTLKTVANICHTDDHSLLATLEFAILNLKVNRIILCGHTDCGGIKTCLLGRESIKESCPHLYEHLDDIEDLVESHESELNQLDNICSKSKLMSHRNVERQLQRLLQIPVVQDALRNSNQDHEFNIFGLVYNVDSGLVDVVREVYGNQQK
Type: biochemical
NS(=O)(=O)c1ccc(NC(=S)N/N=C2\C(=O)Nc3ccccc32)cc1 [4a, 1H-indole-2,3-dione 3-[N-(4-sulfamoylphenyl)thiosemicarbazone], R = H] gave a Ki of 63.9 nM.
For Cc1ccc2c(c1)/C(=N/NC(=S)Nc1ccc(S(N)(=O)=O)cc1)C(=O)N2 [4b, 1H-indole-2,3-dione 3-[N-(4-sulfamoylphenyl)thiosemicarbazone], R = 5-CH3], the Ki was 54 nM.
In the case of NS(=O)(=O)c1ccc(NC(=S)N/N=C2\C(=O)Nc3ccc(OC(F)(F)F)cc32)cc1 [4c, 1H-indole-2,3-dione 3-[N-(4-sulfamoylphenyl)thiosemicarbazone], R = 5-OCF3], the Ki is reported as 53.7 nM.
NS(=O)(=O)c1ccc(NC(=S)N/N=C2\C(=O)Nc3ccc(F)cc32)cc1 [4d, 1H-indole-2,3-dione 3-[N-(4-sulfamoylphenyl)thiosemicarbazone], R = 5-F] showed a Ki of 34.7 nM.
Compound NS(=O)(=O)c1ccc(NC(=S)N/N=C2\C(=O)Nc3ccc(Cl)cc32)cc1 [4e, 1H-indole-2,3-dione 3-[N-(4-sulfamoylphenyl)thiosemicarbazone], R = 5-Cl] has a Ki of 41.3 nM.
For NS(=O)(=O)c1ccc(NC(=S)N/N=C2\C(=O)Nc3ccc(Br)cc32)cc1 [4f, 1H-indole-2,3-dione 3-[N-(4-sulfamoylphenyl)thiosemicarbazone], R = 5-Br], the Ki was 51.6 nM.
Compound NS(=O)(=O)c1ccc(NC(=S)N/N=C2\C(=O)Nc3ccc(I)cc32)cc1 [4g, 1H-indole-2,3-dione 3-[N-(4-sulfamoylphenyl)thiosemicarbazone], R = 5-I] has a Ki of 19.8 nM.
Compound NS(=O)(=O)c1ccc(NC(=S)N/N=C2\C(=O)Nc3ccc(S(=O)(=O)O)cc32)cc1 [4h, 1H-indole-2,3-dione 3-[N-(4-sulfamoylphenyl)thiosemicarbazone], R = 5-SO3Na] has a Ki of 19.8 nM.
Compound NS(=O)(=O)c1ccc(NC(=S)N/N=C2\C(=O)Nc3ccc([N+](=O)[O-])cc32)cc1 [4i, 1H-indole-2,3-dione 3-[N-(4-sulfamoylphenyl)thiosemicarbazone], R = 5-NO2] has a Ki of 42.1 nM.
With NS(=O)(=O)c1ccc(NC(=S)N/N=C2\C(=O)Nc3c(F)cccc32)cc1 [4j, 1H-indole-2,3-dione 3-[N-(4-sulfamoylphenyl)thiosemicarbazone], R = 7-F] the Ki was 15 nM.
With NS(=O)(=O)c1ccc(NC(=S)N/N=C2\C(=O)Nc3c(Cl)cccc32)cc1 [4k, 1H-indole-2,3-dione 3-[N-(4-sulfamoylphenyl)thiosemicarbazone], R = 7-Cl] the Ki was 12.8 nM.
With NS(=O)(=O)c1ccc(NC(=S)N/N=C2\C(=O)Nc3c(Cl)cc(Cl)cc32)cc1 [4l, 1H-indole-2,3-dione 3-[N-(4-sulfamoylphenyl)thiosemicarbazone], R = 5,7-diCl] the Ki was 6.4 nM.
For NS(=O)(=O)c1ccc(NC(=S)N/N=C2\C(=O)Nc3c(Br)cc(Br)cc32)cc1 [4m, 1H-indole-2,3-dione 3-[N-(4-sulfamoylphenyl)thiosemicarbazone], R = 5,7-diBr], the Ki was 46.6 nM.
